Measurements: the NIST ThermoML archive (doi:10.1021/acs.jced.9b00348)
Numbers after ± are expanded uncertainties.

Assay: molar heat capacity at constant pressure
Conditions: 100 kPa, DSC

## [F][Th]([F])([F])[F] [thorium tetraluoride]
1278 K, Crystal
  molar heat capacity at constant pressure: 145 ± 21 J/K/mol
1478 K, Liquid
  molar heat capacity at constant pressure: 168 ± 21 J/K/mol
